This assay addresses T1, h5-HT5A receptor (Homo sapiens, UniProt P47898).
T1 construct: expressed in transfected cells; host or cells: HEK293
Put plainly: [3H]5-CT binding assay h5-HT5A. Particulars: membranes from HEK293 cells expressing h5-HT5A, 2.5 nM [3H]5-CT; read-out: Binding affinity 5-HT5A (Ki). Summed up:
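Membranes from HEK293 cells stably expressing h5-HT5A incubated with 2.5 nM [3H]5-CT and compound in 100 mM Tris-HCl pH 7.7, 1 mM EDTA, 75 min at 30° C. Nonspecific binding with 10 μM methiothepine; filtration and scintillation counting give Ki or IC50.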

Where a name gives a salt, the structure may show the parent alone.

In general, Ki refers to a dissociation constant, usually derived from enzyme kinetics or from competition with a known ligand.

T1 sequence (P47898 whole entry): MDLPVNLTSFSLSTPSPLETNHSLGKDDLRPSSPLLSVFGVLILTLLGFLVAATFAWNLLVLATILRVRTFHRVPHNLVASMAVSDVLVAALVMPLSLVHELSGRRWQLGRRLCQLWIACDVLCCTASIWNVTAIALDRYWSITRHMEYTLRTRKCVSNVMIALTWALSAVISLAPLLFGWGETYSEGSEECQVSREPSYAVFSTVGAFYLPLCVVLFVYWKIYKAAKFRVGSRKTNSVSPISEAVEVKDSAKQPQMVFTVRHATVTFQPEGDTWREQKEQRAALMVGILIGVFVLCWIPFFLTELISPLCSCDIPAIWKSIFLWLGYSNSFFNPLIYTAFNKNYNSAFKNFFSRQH

For the compound `COc1cccc(OC)c1CNC(=N)Nc1nc(-c2ccc(F)cc2)c(C)s1` [Example 118, N-(2,6-dimethoxybenzyl)-N′-[4-(4-fluorophenyl)-5-methyl-1,3-thiazole-2-yl]guanidine], the inhibitory constant (Ki) was less than 50 nM.

As for `COc1cccc(OC)c1CNC(=N)Nc1nc(-c2c(Cl)cccc2Cl)cs1` [Example 119, N-[4-(2,6-dichlorophenyl)-1,3-thiazole-2-yl]-N′-(2,6-dimethoxybenzyl)guanidine], the Ki is less than 50 nM.

As for `COc1cccc(OC)c1CNC(=N)Nc1nc(C2CCCN2C(=O)OC(C)(C)C)cs1` (stereo not drawn) [Example 120, tert-butyl 2-(2-{[[(2,6-dimethoxybenzyl)amino](imino)methyl]amino}-1,3-thiazole-4-yl)pyrrolidine-1-carboxylate], the Ki is 50 to 500 nM.

In the case of `COc1cccc(OC)c1CNC(=N)Nc1nc(-c2cc(C)cs2)cs1` [Example 121, N-(2,6-dimethoxybenzyl)-N′-[4-(4-methyl-2-thienyl)-1,3-thiazole-2-yl]guanidine], the Ki is less than 50 nM.

As to `COc1cccc(OC)c1CNC(=N)Nc1nc(-c2ncccn2)cs1` [Example 122, N-(2,6-dimethoxybenzyl)-N′-(4-pyrimidine-2-yl-1,3-thiazole-2-yl)guanidine hydrobromide], the Ki is less than 50 nM.

Regarding `COc1cccc(OC)c1CNC(=N)Nc1nc(-c2ccc(Cl)cn2)cs1` [Example 123, N-[4-(5-chloropyridine-2-yl)-1,3-thiazole-2-yl]-N′-(2,6-dimethoxybenzyl)guanidine acetate], the Ki was less than 50 nM.

Turning to `COc1cccc(OC)c1CNC(=N)Nc1nc(-c2cc(Cl)cs2)cs1` [Example 124, N-[4-(4-chloro-2-thienyl)-1,3-thiazole-2-yl]-N′-(2,6-dimethoxybenzyl)guanidine], the Ki was less than 50 nM.

In the case of `COc1cccc(OC)c1CNC(=N)Nc1nc(CNC(=O)OC(C)(C)C)cs1` [Example 125, tert-butyl [(2-{[[(2,6-dimethoxybenzyl)amino](imino)methyl]amino}-1,3-thiazole-4-yl)methyl]carbamate], the Ki was less than 50 nM.

As to `COc1cccc(OC)c1CNC(=N)Nc1nc(-c2ncc(Cl)cc2Cl)cs1` [Example 126, N-[4-(3,5-dichloropyridine-2-yl)-1,3-thiazole-2-yl]-N′-(2,6-dimethoxybenzyl)guanidine], the Ki was less than 50 nM.

As for `COc1cccc(OC)c1CNC(=N)Nc1nc2c(s1)CCc1ccccc1-2` [Example 127, N-(4,5-dihydronaphtho[1,2-d][1,3]thiazole-2-yl)-N′-(2,6-dimethoxybenzyl)guanidine], the inhibitory constant (Ki) was less than 50 nM.

Turning to `COc1cccc(OC)c1CNC(=N)Nc1ncc(-c2ccc(F)cc2)s1` [Example 128, N-(2,6-dimethoxybenzyl)-N′-[5-(4-fluorophenyl)-1,3-thiazole-2-yl]guanidine], the Ki was less than 50 nM.

Turning to `COc1ccc(F)cc1CNC(=N)Nc1nc(-c2ccccc2)cs1` [Example 129, N-(5-fluoro-2-methoxybenzyl)-N′-(4-phenyl-1,3-thiazole-2-yl)guanidine], the inhibition constant Ki was 50 to 500 nM.

For the compound `COc1ccc(F)cc1CNC(=N)Nc1nc(C)cs1` [Example 130, N-(5-fluoro-2-methoxybenzyl)-N′-(4-methyl-1,3-thiazole-2-yl)guanidine fumarate], the inhibition constant (Ki) was 50 to 500 nM.

Regarding `COc1cccc(OC)c1CNC(=N)Nc1nc(C(C)C)cs1` [Example 131, N-(2,6-dimethoxybenzyl)-N′-(4-isopropyl-1,3-thiazole-2-yl)guanidine], the Ki is less than 50 nM.

For the compound `COc1cccc(Cl)c1CNC(=N)Nc1nc(-c2ccccc2)cs1` [Example 132, N-(2-chloro-6-methoxybenzyl)-N′-(4-phenyl-1,3-thiazole-2-yl)guanidine], the inhibition constant (Ki) was less than 50 nM.

In the case of `COc1cccc(Cl)c1CNC(=N)Nc1nc(-c2ccccn2)cs1` [Example 133, N-(2-chloro-6-methoxybenzyl)-N′-(4-pyridine-2-yl-1,3-thiazole-2-yl)guanidine], the Ki was less than 50 nM.

With `COc1cccc(Cl)c1CNC(=N)Nc1nc(-c2ccc(Cl)cn2)cs1` [Example 134, N-(2-chloro-6-methoxybenzyl)-N′-[4-(5-chloropyridine-2-yl)-1,3-thiazole-2-yl]guanidine], the Ki was 50 to 500 nM.

As for `COc1cccc(Cl)c1CNC(=N)Nc1nc(-c2ncccn2)cs1` [Example 135, N-(2-chloro-6-methoxybenzyl)-N′-(4-pyrimidine-2-yl-1,3-thiazole-2-yl)guanidine], the Ki was less than 50 nM.

In the case of `COc1cccc(Cl)c1CNC(=N)Nc1nc(-c2ccc(F)cc2)cs1` [Example 136, N-(2-chloro-6-methoxybenzyl)-N′-[4-(4-fluorophenyl)-1,3-thiazole-2-yl]guanidine], the inhibitory constant (Ki) was 50 to 500 nM.

On to `COc1cccc(C)c1CNC(=N)Nc1nc(-c2ccc(Cl)cn2)cs1` [Example 137, N-[4-(5-chloropyridine-2-yl)-1,3-thiazole-2-yl]-N′-(2-methoxy-6-methylbenzyl)guanidine], for which the Ki was more than 500 nM.

`COc1cccc(C)c1CNC(=N)Nc1nc(-c2ccc(F)cc2)cs1` [Example 138, N-[4-(4-fluorophenyl)-1,3-thiazole-2-yl]-N′-(2-methoxy-6-methylbenzyl)guanidine]: the Ki was less than 50 nM.

On to `COc1cccc(C)c1CNC(=N)Nc1nc(-c2ncccn2)cs1` [Example 139, N-(2-methoxy-6-methylbenzyl)-N′-(4-pyrimidine-2-yl-1,3-thiazole-2-yl)guanidine], for which the Ki is less than 50 nM.

Take `COc1cccc(C)c1CNC(=N)Nc1nc(-c2ccccn2)cs1` [Example 140, N-(2-methoxy-6-methylbenzyl)-N′-(4-pyridine-2-yl-1,3-thiazole-2-yl)guanidine]: the inhibition constant Ki was less than 50 nM.

`COc1cccc(F)c1CNC(=N)Nc1nc(-c2ccc(F)cc2)cs1` [Example 141, N-(2-fluoro-6-methoxybenzyl)-N′-[4-(4-fluorophenyl)-1,3-thiazole-2-yl]guanidine]: the inhibitory constant (Ki) fell in the range of 50 to 500 nM.

For `COc1cccc(OC)c1CNC(=N)Nc1nc(-c2ccc(F)cc2O)cs1` [Example 142, N-(2,6-dimethoxybenzyl)-N′-[4-(4-fluoro-2-hydroxyphenyl)-1,3-thiazole-2-yl]guanidine], the Ki is less than 50 nM.

As to `COc1cccc(OC)c1CNC(=N)Nc1nc(Cc2ccc(F)cc2)cs1` [Example 143, N-(2,6-dimethoxybenzyl)-N′-[4-(4-fluorobenzyl)-1,3-thiazole-2-yl]guanidine], the inhibition constant Ki is less than 50 nM.

With `COc1cccc(OC)c1CNC(=N)Nc1nc(-c2ccc(F)cn2)cs1` [Example 144, N-(2,6-dimethoxybenzyl)-N′-[4-(5-fluoropyridine-2-yl)-1,3-thiazole-2-yl]guanidine], the Ki was less than 50 nM.

In the case of `COc1cccc(OC)c1CNC(=N)Nc1nc(-c2ncc(F)cc2F)cs1` [Example 145, N-[4-(3,5-difluoropyridine-2-yl)-1,3-thiazole-2-yl]-N′-(2,6-dimethoxybenzyl)guanidine], the Ki is less than 50 nM.

For `COc1ccc2ccccc2c1CNC(=N)Nc1nc(-c2ccccc2)cs1` [Example 146, N-[(2-methoxy-1-naphthyl)methyl]-N′-(4-phenyl-1,3-thiazole-2-yl)guanidine], the Ki lay in the range of 50 to 500 nM.

Regarding `COc1cccc(OC)c1CNC(=N)Nc1nc(C2CCCN2)cs1` (stereo not drawn) [Example 147, N-(2,6-dimethoxybenzyl)-N′-(4-pyrrolidine-2-yl-1,3-thiazole-2-yl)guanidine hydrochloride], the Ki was less than 50 nM.

The values above are taken from US8481576B2 (Abbott GmbH & Co. KG, priority 2004, dated 2013).
